Results reported in patent publication US8398958B2, “Carotenoid compositions useful for whitening skin” (I.B.R. Israeli Biotechnology Research Ltd., priority 2006, dated 2013).

What was measured:
[1] = tested on: B16 murine melanoma cells; assay: Melanin assay - B16 murine melanoma; type: cell-based; conditions: tested at 0.04%
Protocol: The R7-B16 cells were cultivated in 24 well plates (1000 cells/well). At 20% confluence, culture media were replaced by fresh media containing or not containing (control) the test compound, KA or IBMX (references) or DMSO at a final concentration of 0.5% (control DMSO). Each experimental condition was examined in triplicate. The cells were incubated at 37° C. for 144 hours with medium change after 3 days (2×72 h).
(§1) After incubation, the cell monolayers were rinsed, the cells were lysed and melanin was extracted by a solution 0.5 M NaOH. The optical density (OD) of each experimental point was measured at 405 nm against melanin standards (standard curve 0.39 to 100 μg melanin/ml solution, Sigma M8631). Results were expressed in μg melanin/ml and in percent of the negative control.
(§2) The raw data were transferred to and analyzed with PRISM® software (Graph Pad Software). The inter-group comparisons were performed by variance analysis (ANOVA) with multiple comparison test of Dunnett.

[2] = tested on: Normal human epidermal melanocytes (NHEM-2); assay: Melanin assay - normal human melanocytes; type: cell-based; conditions: for Melanin: 240 hours incubation; for % of control (melanin content): 240 hours, vs control
Protocol: The R6-NHEM-2 cells were cultivated in 24 well plates (120,000 cells/well). At 50% confluence, culture media were replaced by fresh media containing or not containing (control) the test compound, KA or IBMX (references) or DMSO at a final concentration of 0.5% (control DMSO). Each experimental condition was examined in triplicate (hexaplicate for control). The cells were incubated at 37° C. for 240 hours with medium change every 3 days.
as §1, §2

For `O=c1cc(CO)occ1O` [Kojic Acid], which Melanin ([1]; 144 hours incubation) is on record?
Its Melanin is 14.9 µg/mL.

And the “% of control (melanin content)” value ([1]; 144 hours, vs control)?
The value was 88%.

What about the Melanin ([2]; tested at 0.00156%) of the same molecule?
The Melanin was 16.1 µg/mL.

What about the “% of control (melanin content)” value ([2]; tested at 0.00156%) of the same molecule?
Its value is 79%.

And the Melanin ([2]; tested at 0.0036%)?
Its Melanin is 13.6 µg/mL.

What about the “% of control (melanin content)” value ([2]; tested at 0.0036%) of the same molecule?
The value was 67%.
